In general, pKa refers to the pH at which an ionisable group is half protonated.

We go through six molecules from patent publication US7507395B2, “Methods of using fluorescent pH indicators for intracellular assays” (MDS Analytical Technologies (US) Inc., priority 2001, dated 2009).

The conditions of data set [1]: background statement; cited from earlier work.
For data set [2] the following is noted: pH buffer series, final concentration 1.0 μM, Gemini XS fluorescence plate reader.
From the text: The excitation and emission spectra of the aqueous solutions are obtained with a Gemini XS fluorescence plate reader (Molecular Devices Corporation; Sunnyvale, Calif.).
For data set [3], the system named is M1CHO cells. In words: Pirenzapine inhibition of carbachol-mediated stimulation of M1CHO cells (intracellular pH). The format is cell-based. To be noted: pirenzapine 0.1, 0.3, 1.0 μM, carbachol 1 μM. The protocol: M1CHO Cells, 50,000, in 40 μL are seeded and incubated at 37° C., 5% CO2 overnight in a 96-well microplate. To each well is added 10 μL of the Loading Buffer (as described in Examples 19 and 20) including a fluorescein diacetate compound of the invention and a nonfluorescent quenching dye. After 45 min at room temperature 5 μL of 220 mM ammonium chloride, in combination with pirenzapine to a final concentration of 0.0 μM, 1.0 μM, 0.3 μM, and 0.1 μM. […] A drop in fluorescence signal is observed at time=10 to 20 seconds, corresponding to a drop in signal due to the increased acidification of the cells. The low pH stimulates the Na^+/H^+ exchange pump.

The subject of data set [4] is M1CHO cells. The data set is described as follows: Effect of increasing concentrations of carbachol on M1CHO cells (intracellular pH). It counts as cell-based. Particulars: carbachol 6.7 μM or 0 μM, after ammonium chloride. The protocol: M1CHO cells, 50,000, in 40 μL were seeded and incubated at 37° C., 5% CO2 overnight in a 96-well microplate. To each well is added 10 μL of the Loading Buffer (as described in Examples 19 and 20) including a fluorescein diacetate compound of the invention and a nonfluorescent quenching dye. After 45 min at room temperature, 5 μL of 220 mM ammonium chloride is added. […] A drop is fluorescence signal is observed at time=10 to 20 seconds due to the increased acidification of the cells. The low pH stimulates the Na^+/H^+ exchange pump.
For Compounds 19 and 20, emission is monitored at 550 nm and excitation is monitored at 505 and 470 nm.

Data set [5] has as its system MCF7/ADR cells. The data set is described as follows: Drug Resistance Assay: insulin on MCF7/ADR cells (intracellular pH). It counts as cell-based. To be noted: 0.003-150 nM insulin, after NH4Cl acid load, FIG. 6. As for the experimental part:
MCF7/ADR cells are MCF7 mammary gland adenocarcinoma selected for adriamycin resistance. These cells are propagated and maintained in DMEM medium containing 5% FCS, 1× Pen/Strep, 2 mM L-glutamine, and non-essential amino acids. The assay is performed according to the following procedure.
The cells are then incubated in a 37° C. CO2 incubator overnight.
A 25 mM stock solution of a Masking Compound is prepared by dissolving an appropriate amount of the desired Masking Compound in 10 mL water.
The cell plate is removed from the incubator, and all wells are washed once with 1× Assay Buffer, leaving 40 μL of buffer in each well. The cell plate is then incubated at 37° C. for at least 4 hours.
A stock solution of insulin is prepared by dissolving 1 mg of insulin in 1 mL of 1 M HCl to a concentration of 174 μM. A 5 μL aliquot of the insulin stock solution is diluted with 4,574 μL H+H/2 mM probenecid/0.1% BSA solution (190 nM stock, 150 nM final concentration). Three-fold dilutions are performed 11 times to obtain final concentrations of 0.003, 0.008, 0.02, 0.07, 0.2, 0.6, 1.9, 5.6, 17, 50, and 150 nM, respectively.

Data set [6] deals with CHO/CCR5/Galphaqi5 cells. In words: Effect of increasing concentrations of RANTES on CHO/CCR5/Galphaqi5 cells (intracellular pH). The format is cell-based. To be noted: RANTES 2-500 nM, after ammonium chloride. The protocol:
CHO/CCR5/Galphaqi5 cells, 80,000, in 40 μL are seeded and incubated at 37° C., 5% CO2 overnight in a 96-well microplate. To each well is added 10 μL of Loading Buffer (as described in Examples 19 and 20) including a fluorescein diacetate compound of the invention and a nonfluorescent quenching dye. After 45 min at room temperature 5 μL of 220 mM ammonium chloride is added. Following an additional 15 min incubation at room temperature, 200 μL of buffer containing RANTES to a final concentration of 500, 167, 56, 19, 6, 2, or 0 nM is added using the fluidics module on a fluorescence microplate reader (10 seconds after the start of the experiment) and fluorescence readings are recorded. A drop in fluorescence signal is observed at time=10 to 20 seconds, corresponding to an increased acidification of the cells. The low pH stimulates the Na+/H+ exchange pump.

With “2′,7′-bis-(2-carboxyethyl)-5-(and-6)-carboxyfluorescein [BCECF]”, the pKa in data set [1] is 7.0.

Consider “2′,7′-diethyl-5-(or 6-)carboxyfluorescein [Compound 4]”, for which, in data set [2], the “calculated pKa (acid dissociation constant)” value was 6.96.

As for `CN1CCN(CC(=O)N2c3ccccc3C(=O)Nc3cccnc32)CC1` [Pirenzapine], the “effect on carbachol-mediated stimulation” value in data set [3] is reported as “inhibits the carbachol-mediated stimulation”.

As for `C[N+](C)(C)CCOC(N)=O` [carbachol], the “activity of the Na+/H+ exchange pump / alkalinization of the cells” value in data set [4] is “increases the activity of the pump, resulting in a greater alkalinization of the cells in a dose:dependent manner”.

Regarding insulin, in data set [5], the “activity of the Na+/H+ exchange pump / alkalinization of the cells” value was “increases the activity of the pump, resulting in a greater alkalinization of the cells in a dose-dependent manner”.

B1: RANTES (protein, UniProt P13501 24-91, looked up)
C-C motif chemokine 5: SPYSSDTTPCCFAYIARPLPRAHIKEYFYTSGKCSNPAVVFVTRKNRQVCANPEKKWVREYINSLEMS
notes: RANTES, added to CHO/CCR5/Galphaqi5 cells at increasing concentrations
Regarding B1, the “activity of the Na+/H+ exchange pump / alkalinization of the cells” value in data set [6] was “increases the activity of the pump, resulting in a greater alkalinization of the cells in a dose:dependent manner”.
